From ChEMBL document CHEMBL2424520, “Screening and evaluation of small organic molecules as ClpB inhibitors and potential antimicrobials” (J Med Chem, 2013)
≈ marks a conversion by molar mass, not a printed value. Each block holds one molecule with its values, some of them ahead of it. Calls of active or inactive are those of the source. The rule behind the calls is not given here.

Tests used:
[1] = Binding affinity to CLPB (unknown origin) expressed in Escherichia coli MC4100 assessed as change in melting temperature at 100 to 200 uM after 30 mins by DSF analysis in presence of ADP
[2] = Binding affinity to CLPB (unknown origin) expressed in Escherichia coli MC4100 assessed as change in melting temperature at 100 to 200 uM after 30 mins by DSF analysis
[3] = Inhibition of DNAK/CLPB (unknown origin) assessed as reactivation of malate dehydrogenase aggregates after 2 hrs in presence of Tween 80
[4] = Inhibition of DNAK (unknown origin) assessed as reactivation of luciferase aggregates after 2 hrs
[5] = Inhibition of DNAK/CLPB (unknown origin) assessed as reactivation of malate dehydrogenase aggregates after 2 hrs
[6] = Inhibition of DNAK (unknown origin) assessed as reactivation of luciferase aggregates after 2 hrs in presence of Tween 80
[7] = Binding affinity to CLPB (unknown origin) expressed in Escherichia coli MC4100 assessed as change in melting temperature at 100 to 200 uM after 30 mins by DSF analysis in presence of ATP
[8] = Activation of CLPB (unknown origin) expressed in Escherichia coli MC4100 at 1 to 100 uM by spectrophotometric analysis
[9] = Binding affinity to CLPB (unknown origin) expressed in Escherichia coli MC4100 assessed as change in melting temperature at 100 to 200 uM after 30 mins by DSF analysis in presence of ATPgammaS
[10] = Activation of CLPB (unknown origin) expressed in Escherichia coli MC4100 using alpha-casein as substrate at 1 to 100 uM by spectrophotometric analysis
[11] = Effect on ATPase activity of CLPB (unknown origin) expressed in Escherichia coli MC4100 using alpha-casein as substrate at 1 to 100 uM by spectrophotometric analysis
[12] = Effect on ATPase activity of CLPB (unknown origin) expressed in Escherichia coli MC4100 at 1 to 100 uM by spectrophotometric analysis
[13] = Inhibition of CLPB (unknown origin) expressed in Escherichia coli MC4100 at 1 to 100 uM by spectrophotometric analysis
[14] = Inhibition of CLPB (unknown origin) expressed in Escherichia coli MC4100 using alpha-casein as substrate at 1 to 100 uM by spectrophotometric analysis
[15] = Binding affinity to CLPB E276A/E678A mutant (unknown origin)-alpha-casein complex expressed in Escherichia coli MC4100 at 0.1 to 1000 uM by titrimetric analysis
[16] = Binding affinity to CLPB E276A/E678A mutant (unknown origin) expressed in Escherichia coli MC4100 assessed as change in melting temperature by DSF analysis
[17] = Binding affinity to CLPB hexamer (unknown origin) expressed in Escherichia coli MC4100 at 100 uM by sedimentation equilibrium analysis
Escherichia coli [18] = experiment: Antibacterial activity against CLPB-deleted Escherichia coli MC4100 assessed as reduction of CFU count at 300 uM at 37 degC after 24 hrs by two-fold dilution method in presence of paraquat; format: functional, organism-based
Escherichia coli [19] = experiment: Antibacterial activity against Escherichia coli BL21(DE3) assessed as growth inhibition at 0.1 to 1000 uM at 37 to 47 degC after 24 hrs by two-fold dilution method in presence of paraquat; format: functional
Escherichia coli [20] = experiment: Antibacterial activity against CLPB-deleted Escherichia coli MC4100 assessed as growth inhibition at 37 degC after 24 hrs by two-fold dilution method; format: functional, organism-based
[21] = Reduction of ATPase activity of DNAK (unknown origin) at 100 uM by spectrophotometric analysis
Escherichia coli [22] = experiment: Antibacterial activity against Escherichia coli MC4100 assessed as reduction of CFU count at 300 uM at 37 degC after 24 hrs by two-fold dilution method in presence of paraquat; format: functional
[23] = Cytotoxicity against human HeLa cells assessed as cell viability at 40 to 100 uM after 72 hrs by tetrazolium reduction assay relative to control; format: cell-based; conditions: read-out: Activity
[24] = Effect on ATPase activity of DNAK (unknown origin) using ALLQSRLLLSAPRRAAATARY as substrate at 100 uM by spectrofluorimetric analysis
[25] = Reduction of ATPase activity of DNAK (unknown origin) using ALLQSRLLLSAPRRAAATARY as substrate at 100 uM by spectrophotometric analysis relative to control in presence of cochaperone DnaJ
Escherichia coli [26] = experiment: Antibacterial activity against CLPB-deleted Escherichia coli MC4100 assessed as growth inhibition at 0.1 to 1000 uM at 37 to 47 degC after 24 hrs by two-fold dilution method in presence of paraquat; format: functional, organism-based
Escherichia coli [27] = experiment: Antibacterial activity against Escherichia coli MC4100 assessed as growth inhibition at 42 degC after 24 hrs by two-fold dilution method in presence of paraquat; format: functional; conditions: MC4100, 24 h
Escherichia coli [28] = experiment: Antibacterial activity against Escherichia coli MC4100 assessed as growth inhibition at 0.1 to 1000 uM at 37 to 47 degC after 24 hrs by two-fold dilution method in presence of paraquat; format: functional, organism-based
Escherichia coli [29] = experiment: Antibacterial activity against TolC-deleted Escherichia coli JLS1015 at 37 to 47 degC after 7 hrs by two-fold dilution method; format: functional; conditions: JLS1015, 7 h
[30] = Binding affinity to CLPB (unknown origin) expressed in Escherichia coli MC4100 up to 400 seconds by surface plasmon resonance analysis
Escherichia coli [31] = experiment: Antibacterial activity against Escherichia coli MC4100 assessed as growth inhibition at 37 degC after 24 hrs by two-fold dilution method; format: functional, organism-based
Escherichia coli [32] = experiment: Antibacterial activity against Escherichia coli MC4100 assessed as reduction of CFU count at 300 uM at 42 degC after 24 hrs by two-fold dilution method; format: functional
Escherichia coli [33] = experiment: Antibacterial activity against Escherichia coli BL21(DE3) assessed as growth inhibition at 42 degC after 24 hrs by two-fold dilution method in presence of paraquat; format: functional
[34] = Inhibition of ATPase activity of CLPB (unknown origin) expressed in Escherichia coli MC4100 using 20 to 100 uM alpha-casein as substrate at 1 to 100 uM by spectrophotometric analysis
Escherichia coli [35] = experiment: Antibacterial activity against CLPB-deleted Escherichia coli MC4100 assessed as reduction of CFU count at 300 uM at 37 degC after 24 hrs by two-fold dilution method; format: functional, organism-based
[36] = Reduction of ATPase activity of DNAK (unknown origin) using ALLQSRLLLSAPRRAAATARY as substrate at 100 uM by spectrophotometric analysis relative to control in presence of cochaperone GrpE
[37] = Inhibition of ATPase activity of CLPB (unknown origin) expressed in Escherichia coli MC4100 using 10 uM alpha-casein as substrate at 1 to 100 uM by spectrophotometric analysis
[38] = Cytotoxicity against CHO cells assessed as cell viability at 40 to 100 uM after 72 hrs by tetrazolium reduction assay relative to control; format: cell-based, Cricetulus griseus; conditions: chinese hamster, read-out: Activity
[39] = Binding affinity to CLPB E276A/E678A mutant (unknown origin) expressed in Escherichia coli MC4100 at 80 uM in presence of alpha-casein by spectrofluorimetric analysis
[40] = Binding affinity to CLPB E276A/E678A mutant (unknown origin) expressed in Escherichia coli MC4100 at 100 uM in presence of alpha-casein by spectrofluorimetric analysis
Escherichia coli [41] = experiment: Antibacterial activity against Escherichia coli BL21(DE3) assessed as growth inhibition at 37 degC after 24 hrs by two-fold dilution method; format: functional

ΔTm [1]: -0.7 °C
ΔTm [2]: 18.1 °C
IC50 [3]: 15 µM
IC50 [4]: 85 µM
IC50 [5]: 30 µM
IC50 [6]: 50 µM
ΔTm [7]: -0.2 °C
Activity [8]: Active
ΔTm [9]: 14.6 °C
Activity [10]: Active
Structure (SMILES): O=C1Nc2ccc(Br)cc2/C1=C1/SC(=O)N(c2ccccc2)C1=O

ΔTm [1]: 5.2 °C
ΔTm [2]: 0.8 °C
IC50 [4]: > 100 µM
IC50 [5]: 90 µM
ΔTm [7]: 1.8 °C
ΔTm [9]: 4.2 °C
Activity [11]: inactive
Activity [12]: inactive
Structure (SMILES): O=C(Nc1cccc([N+](=O)[O-])c1)c1sc2cccc(Cl)c2c1Cl

ΔTm [1]: 1.5 °C
inhibition [13]: Active
ΔTm [2]: -0.8 °C
inhibition [14]: Active
IC50 [3]: 40 µM
IC50 [4]: > 100 µM
IC50 [5]: 65 µM
IC50 [6]: > 100 µM
ΔTm [7]: 2.2 °C
ΔTm [9]: -0.8 °C
Activity [15]: inactive
Structure (SMILES): CCn1c(=O)c(C(=O)Nc2cccc(O)c2)c(O)c2ccccc21

ΔTm [1]: 7.6 °C
ΔTm [2]: 9 °C
IC50 [3]: > 100 µM
IC50 [4]: > 100 µM
IC50 [5]: > 100 µM
IC50 [6]: > 100 µM
ΔTm [7]: 7.9 °C
ΔTm [9]: 5.4 °C
Activity [11]: inactive
Activity [12]: inactive
Structure (SMILES): C=CCN1C(=O)C(=C2C(=O)Nc3ccccc32)SC1=S

Activity [17]: Active
ΔTm [1]: 6.7 °C
ΔTm [2]: 8.1 °C
Activity [21]: Active
IC50 [3]: 6 µM
IC50 [4]: 4 µM
IC50 [5]: 7 µM
IC50 [6]: 6 µM
ΔTm [7]: 7.2 °C
Activity [24]: inactive
fold change (FC) [25]: 7
ΔTm [9]: 4.9 °C
MIC (Escherichia coli [27]): 60 µM
MIC (Escherichia coli [29]): 5 µM (≈ 1.46 µg/mL)
MIC (Escherichia coli [33]): 60 µM
inhibition [34]: Active
fold change (FC) [36]: 7
inhibition [37]: Active
Activity [15]: Active
Activity [39]: Active
Structure (SMILES): O=Cc1cc(Cc2ccccc2Cl)cc([N+](=O)[O-])c1O
Kd [16]: 12 µM
Activity (Escherichia coli [18]): inactive
growth inhibition (GI) (Escherichia coli [19]): Active
growth inhibition (GI) (Escherichia coli [20]): Active
log10cfu (Escherichia coli [22]): 2
viability at 72 h, up to 100 µM [23]: 50%
growth inhibition (GI) (Escherichia coli [26]): inactive
growth inhibition (GI) (Escherichia coli [28]): Active
Kd [30]: 12.9 µM
growth inhibition (GI) (Escherichia coli [31]): Active
log10cfu (Escherichia coli [32]): 2
Activity (Escherichia coli [35]): inactive
viability at 72 h, up to 100 µM [38]: 50%

ΔTm [1]: 0.8 °C
ΔTm [2]: 1.5 °C
IC50 [3]: 15 µM
IC50 [4]: > 100 µM
IC50 [5]: 20 µM
IC50 [6]: > 100 µM
ΔTm [7]: 0.8 °C
ΔTm [9]: 2 °C
MIC (Escherichia coli [27]): 60 µM
MIC (Escherichia coli [29]): 5 µM (≈ 1.93 µg/mL)
MIC (Escherichia coli [33]): 60 µM
inhibition [34]: inactive
Activity [40]: Active
inhibition [37]: Active
Activity [15]: inactive
Structure (SMILES): O=C(Nc1ccccc1)OCCSC(=O)Nc1ccc(Cl)c(Cl)c1
Kd [16]: 23 µM
Activity (Escherichia coli [18]): inactive
growth inhibition (GI) (Escherichia coli [19]): Active
growth inhibition (GI) (Escherichia coli [20]): Active
log10cfu (Escherichia coli [22]): 2
viability at 72 h, up to 100 µM [23]: 50%
growth inhibition (GI) (Escherichia coli [26]): inactive
growth inhibition (GI) (Escherichia coli [28]): Active
Kd [30]: 19 µM
growth inhibition (GI) (Escherichia coli [31]): Active
log10cfu (Escherichia coli [32]): 2
Activity (Escherichia coli [35]): inactive
viability at 72 h, up to 100 µM [38]: 50%

ΔTm [1]: 12.3 °C
ΔTm [2]: 17.5 °C
IC50 [4]: 100 µM
IC50 [5]: > 100 µM
ΔTm [7]: 11.9 °C
Activity [8]: Active
ΔTm [9]: 13.3 °C
Activity [10]: Active
Structure (SMILES): C(=C\C=C\Nc1ccccc1)/C=C/Nc1ccccc1

The remaining lines, values behind:

Structure (SMILES): Cc1c(Cl)c([N+](=O)[O-])nn1CC(=O)Nc1cc(Oc2ccc(Cl)cc2Cl)cc([N+](=O)[O-])c1
ΔTm [1]: 0.7 °C
ΔTm [2]: 14.3 °C
IC50 [4]: > 100 µM
IC50 [5]: > 100 µM
ΔTm [7]: 2 °C
Activity [11]: inactive
Activity [12]: inactive

Structure (SMILES): COCCCN1C(=O)C(=C2C(=O)Nc3ccc(Br)cc32)SC1=S
ΔTm [1]: 9.4 °C
ΔTm [2]: 8.4 °C
IC50 [5]: > 100 µM
ΔTm [7]: 13.1 °C
ΔTm [9]: 14.3 °C
Activity [11]: inactive
Activity [12]: inactive

Structure (SMILES): CC(C)[C@H](C(=O)O)N1C(=O)/C(=C2/C(=O)Nc3ccc(Br)cc32)SC1=S
ΔTm [1]: 19.9 °C
ΔTm [2]: 24.2 °C
IC50 [5]: > 100 µM
ΔTm [7]: 22.1 °C
ΔTm [9]: 19.3 °C
Activity [11]: inactive
Activity [12]: inactive

Structure (SMILES): O=C1Nc2ccc([N+](=O)[O-])cc2/C1=C1\SC(=O)N(c2ccc(Cl)cc2)C1=O
ΔTm [2]: > 40 °C
IC50 [3]: 6 µM
IC50 [4]: 40 µM
IC50 [5]: 10 µM
IC50 [6]: 60 µM
Activity [8]: Active
ΔTm [9]: 12.3 °C
Activity [10]: Active

Structure (SMILES): CC1(C)S[C@@H]2[C@H](NC(=O)[C@H](N)c3ccccc3)C(=O)N2[C@H]1C(=O)O [AMPICILLIN]
MIC (Escherichia coli [41]): 2 µM (≈ 0.699 µg/mL)

Structure (SMILES): COc1cc(/C=C2/C(=O)NN(c3ccc(Cl)cc3)C2=O)ccc1OCc1ccc(F)cc1
ΔTm [1]: 0.7 °C
ΔTm [2]: 1 °C
IC50 [3]: 11 µM
IC50 [4]: > 100 µM
IC50 [5]: 7.5 µM
IC50 [6]: > 100 µM
ΔTm [7]: 1.2 °C
Activity [8]: Active
ΔTm [9]: 7.1 °C
Activity [10]: Active
